Calls of active or inactive are those of the source.
Experiments:
A549 = experiment: Antitumor activity against A549 cells; assay type: functional, cell-based; conditions: Homo sapiens
P388 = experiment: Antitumor activity against P388 cells; assay type: functional, cell-based; conditions: Mus musculus
Cladosporium cucumerinum = experiment: Antifungal activity against Cladosporium cucumerinum; assay type: functional, organism-based

Measured: Activity

COC(=O)[C@@]12CC(=O)[C@@H](C(C)C)CC(=O)[C@@H](C)CCC[C@@H](C)/C=C3\O[C@@](C)(C[C@@H]31)/C1=C/C[C@](C)(O)[C@H]3CC[C@@](C)(O3)[C@H](O)CC/C(C)=C/[C@H]12
inactive: all assays above

C=C1CC[C@@H]2O[C@@H]1CC/C(C)=C/[C@@H]1C(=C(C)C[C@H]3C(=O)C[C@H](C)CCC[C@H](C)C(=O)C[C@H](C(C)C)C(=O)C[C@@]13C(=O)OC)[C@H](O)C[C@@]2(C)O
inactive: all assays above

COC(=O)[C@@]12CC(=O)[C@@H](C(C)C)CC(=O)[C@@H](C)CCC[C@@H](C)CC(=O)[C@@H]1CC(C)=C1[C@H](O)C[C@@](C)(Cl)[C@@H](O)CC[C@@]3(C)O[C@@H]3CC/C(C)=C/[C@H]12
inactive: all assays above

COC(=O)[C@@]12CC(=O)[C@@H](C(C)C)CC(=O)[C@@H](C)CCC[C@@H](C)CC(=O)[C@@H]1CC(C)=C1[C@H](O)C[C@@]3(C)O[C@@H]3CC[C@@]3(C)O[C@@H]3CC/C(C)=C/[C@H]12
inactive: all assays above

COC(=O)[C@@]12CC(=O)[C@@H](C(C)C)CC(=O)[C@@H](C)CCC[C@@H](C)CC(=O)[C@@H]1CC(C)=C1[C@H](O)C[C@](C)(Cl)[C@H]3CC[C@@](C)(O3)[C@H](O)CC/C(C)=C/[C@H]12
inactive: all assays above

COC(=O)/C1=C/C(=O)C[C@H](C)CCC[C@H](C)C(=O)C[C@H](C(C)C)C(=O)C1
inactive: all assays above
